Data published in publication PMC10135050, “Neutralizing Carbapenem Resistance by Co-Administering Meropenem with Novel β-Lactam-Metallo-β-Lactamase Inhibitors” (Antibiotics, 2023).

Assays:
[1] = Plasma drug concentrations in the in vivo efficacy study; conditions: male, mouse, 100 mg/kg IP every two hours, infected BALB/c mice
Protocol: A murine thigh infection model described by Michail et al. was performed with minor modifications. Male Bragg inbred albino c-strain (BALB/c) mice weighing 20–25 g (n = 90) were used in this study. Each of the three groups constituted n = 30 mice, with n = 6 mice receiving treatment every two hours. Prior to infection, mice were IP treated with 150 mg/kg cyclophosphamide on day one and 100 mg/kg on day four of the trial. This was performed to induce neutropenia in the mice. Neutropenia was confirmed by a neutrophil count of <100/mm^3. On day five of the trial, 0.1 mL inoculum containing 10^6–10^8 cfu/mL of K. pneumoniae NDM were IM injected into the right thigh of the mice to initiate infection. Meropenem monotherapy, BP2 + meropenem combination therapy, or normal saline was administered every two hours in an eight-hour treatment period. Mice were euthanized by isoflurane overdose at 2 h, 4 h, 6 h and 8 h post dosing. The right thigh muscle was then aseptically removed and homogenized in 5 mL PBS. Homogenates were spread onto Mueller–Hinton agar and MacConkey agar plates, followed by incubation at 35 °C for 24 h and enumeration of the cfu/mL.
A Shimadzu Nexera Series (Shimadzu Corporation, Kyoto, Japan) liquid chromatography system was coupled with Shimadzu LCMS-8050 tandem mass spectrometer (Shimadzu, Kyoto, Japan). The chromatographic separation was achieved using a Shim-Pack Velox SP-C18 column (100 mm × 2.1 mm, 2.7 µm particle size) with a gradient mobile phase comprised of Millipore water (0.1% v/v trifluoroacetic acid) (A) and Acetonitrile (0.1% v/v trifluoroacetic acid) (B). The gradient method started from 5 to 95% B in 8 min, then held at 95% B for up to 12 min; thereafter, it was brought back to 5% B at 12.1 min. The column was equilibration time was 2.9 min with a flow rate of 0.4 mL min^−1 and the column oven temperature at 40 °C. The injection volume was 25 µL, and the total run time of the method was 15 min. Quantitative and qualitative studies were conducted using MRM mode via an ESI interface, with the following source parameters: nitrogen nebulizer gas flow 3 L/min; heat gas 10 L/min and interface temperature of 300 °C. The precursor and product ions optimized were m/z 813.2→330.0 for BP2, m/z 384.50→68.25 for meropenem and m/z 350.50→304.40 for Ampicillin (IS). Results were analyzed using LabSolutions Insight LCMS. All data are expressed as a mean ± SD.
Figure 6 Plasma BP2 and meropenem concentrations over the eight-hour treatment period. BALB/c mice were infected intramuscularly (IM) in the right thigh with 10^6–10^8 K. pneumoniae NDM cfu/mL. Treatment was initiated two hours post infection with either S, M, or BP2. Four treatment doses were administered via intraperitoneal (IP) injection every two hours. Data are presented as a mean ± SD (n = 6). Meropenem-only (red triangle)—animals treated with meropenem only, Meropenem with BP2 (red circles)—meropenem concentration when animals were treated with the BP2 combination. BP2 with meropenem (green square)—concentration of BP2 when animals were treated with the meropenem combination.

[2] = target: T1, VIM-2 (Escherichia coli, UniProt Q5U7L7); assay: Enzyme inhibition kinetics (nitrocefin); format: biochemical
T1 construct: purchased RayBiotech (RayBiotech Life Inc., Peachtree Corners, GA, USA)
Protocol: (§1) The IC50 was calculated from the generated sigmoidal curves (Figure S1) using GraphPad Prism software version 8.0.2 (GraphPad Inc., San Diego, CA, USA), and the Ki app was calculated using the Cheng–Prusoff equation [43]. […] However, we expect that inhibitors that remove one Zn atom from the enzyme active site will be slow-acting irreversible inhibitors that would require a more detailed kinetic analysis than used here. […] Structurally, BP2 is a thiazole-containing compound, while BP1 lacks this moiety. It is unclear whether the increased inhibition activity is due to the longer distance between the chelator moiety and the lactam moiety, which is less likely to sterically hinder the chelator, or if it is the thiazole itself that boosts the interaction efficacy of the compound.
(§2) A dose-dependent enzyme inhibition assay was performed using a Biotek PowerWave XS2 (Biotek Instruments Inc., Winooski, VT, USA) plate reader. NDM-1 and VIM-2 enzymes were purchased from RayBiotech (RayBiotech Life Inc., Peachtree Corners, GA, USA). Enzymes in the quantity of 1 nM (NDM-1) or 0.5 nM (VIM-2) were used in this study with a fixed nitrocefin concentration of either 120 µM (NDM-1) or 50 µM (VIM-2) and varying BP2 concentrations ranging from 5 to 200 µM (NDM-1) and 2.5 to 300 µM (VIM-2) in 50 mM HEPES buffer supplemented with 100 µg/mL BSA and 10 µM ZnCl2. Inhibition was measured at 482 nm at 25 °C.

[3] = target: T2, NDM-1 (Klebsiella pneumoniae, UniProt C7C422); assay: Enzyme inhibition kinetics (nitrocefin); format: biochemical
T2 construct: purchased RayBiotech (RayBiotech Life Inc., Peachtree Corners, GA, USA)
Protocol: as §1, §2

[4] = test system: HepG2 cells; assay: LDH membrane leakage assay; format: cell-based, human
Protocol: HepG2 cells were cultured in 25 mL cell culture flasks using Eagle’s minimum essentials medium (EMEM) supplemented with 10% fetal bovine serum, 1% pen-strep-fungizone and 1% L-glutamine, maintained in a humidified incubator (37 °C, 5% CO2) until approximately 80% confluence.
The LDH assay was used to assess membrane damage of HepG2 cells. Supernatant collected from control and BP2 treated cells were centrifuged (400× g, 24 °C, 10 min) and dispensed (100 μL/well) in triplicate into a 96-well microtiter plate. LDH reagent (100 μL, 11644793001, Sigma Aldrich, Schnelldorf, Germany) was added to each well. The plate was incubated for 30 min at room temperature in the dark. Absorbance was read using a spectrophotometer (Bio-Tek μQuant,) at […]. Results are represented as relative fold change compared to untreated control.

T2 sequence (C7C422 29-270, looked up, species assumed): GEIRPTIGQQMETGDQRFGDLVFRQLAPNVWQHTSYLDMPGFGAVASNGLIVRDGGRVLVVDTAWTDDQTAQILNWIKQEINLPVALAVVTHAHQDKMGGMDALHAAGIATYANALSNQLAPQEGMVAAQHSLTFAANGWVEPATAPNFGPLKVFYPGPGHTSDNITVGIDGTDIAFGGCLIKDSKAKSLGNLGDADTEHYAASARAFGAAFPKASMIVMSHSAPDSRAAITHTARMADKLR

Structure (SMILES)	concentration at 2 h [1] [ng/mL]	concentration at 4 h [1] [ng/mL]	concentration at 6 h [1] [ng/mL]	concentration at 8 h [1] [ng/mL]	IC50 ([2]; VIM-2 0.5 nM, nitrocefin 50 µM, mean ± SD) [µM]	Ki ([2]; VIM-2, Cheng–Prusoff equation, read-out: Ki app) [µM]	IC50 ([3]; NDM-1 1 nM, nitrocefin 120 µM, mean ± SD) [µM]	Ki ([3]; NDM-1, Cheng–Prusoff equation, read-out: Ki app) [µM]	LDH levels ([4]; HepG2, 1 µg/mL)	LDH membrane leakage ([4]; HepG2, 8 µg/mL–200 µg/mL)	Cell membrane integrity (LDH leakage) ([4]; HepG2, all concentrations tested)
CON=C(C(=O)NC1C(=O)N2C(C(=O)O)=C(COC(C)=O)CSC12)c1csc(NC(=O)CC(C(=O)OC)N2CCN(CC(=O)O)CCN(CC(=O)O)CC2)n1 (stereo in doubt) [BP2]	2670	6970	4430	3490	57.1 ± 2.9	30.9	70.7 ± 4.5	35.3	remained unaffected	significantly decreased	not disrupted
C[C@@H](O)[C@H]1C(=O)N2C(C(=O)O)=C(S[C@@H]3CN[C@H](C(=O)N(C)C)C3)[C@H](C)[C@H]12 [Meropenem]	7060	27500	14900	8840							
